Experimental data: EP1761537B1, “PYRROLO[2,1-C][1,4]BENZODIAZEPINE-NAPTHALIMIDE […] THROUGH […] AND PROCESS FOR PREPARATION THEREOF” (Council of Scientific and Industrial Research, priority 2004, dated 2006)

Columns and labels:
CT-DNA = test: DNA Thermal Denaturation Studies; format: binding; details: 1:5 molar ratio [PBD]/[DNA], CT-DNA 100 µM, ligand 20 µM, 10 mM sodium phosphate + 1 mM EDTA, pH 7.00
Experimental: For CT-DNA alone at pH 7.00 ± 0.01, Tm = 69.8 °C ± 0.01 (mean value from 10 separate determinations), all ΔTm values are ± 0.1 - 0.2 °C. For a 1:5 molar ratio of [PBD]/[DNA], where CT-DNA concentration = 100 µM and ligand concentration = 20 µM in aqueous sodium phosphate buffer [10 mM sodium phosphate + 1 mM EDTA, pH 7.00 ± 0.01].

HT-29 = test: In vitro cytotoxicity against human cancer cell lines (sulforhodamine B); format: cell-based; details: HT-29 (colon), 48 hours, read-out: percentage growth inhibition; for inhibition at 100 µM: 10^-4 mol/L; for inhibition at 10 µM: 10^-5 mol/L; for inhibition at 1 µM: 10^-6 mol/L
Experimental: (§1) In vitro cytotoxicity against human cancer cell lines: The human cancer cell lines procured from National Cancer Institute, Frederick, U.S.A or National Center for Cell Science; Pune, India. were used in present study. Cells were grown in tissue culture flasks in complete growth medium (RPMI-1640 medium with 2 mM glutamine, 100 µg/ml streptomycin, pH 7.4, sterilized by filtration and supplemented with 10% fetal calf serum and 100 units/ml penicillin before use) at 37°C in an atmosphere of 5% CO2 and 90% relative humidity in a carbon dioxide incubator. The cells at subconfluent stage were harvested from the flask by treatment with trypsin (0.5% in PBS containing 0.02% EDTA) for determination of cytotoxicity. Cells with viability of more than 98% as determined by trypan blue exclusion were used for assay. The cell suspension of the required cell density were prepared in complete growth medium with gentamycin (50µg/ml) for determination of cytotoxicity.
(§2) A stock solutions of (2 X 10^-2 M) of test material were prepared in DMSO . The stock solutions were serially diluted with complete growth medium containing 50µg/ml of gentamycin to obtain working test solutions of required concentrations.
(§3) In vitro cytotoxicity against human cancer cell lines was determined (Monks, A., Scudiero, D., Skehan, P, Shoemaker R, Paull, K., Vistica, D., Hose, C., Langley, J., Cronise, P., Vaigro-Wolff, A., Gray-Goodrich, M.; Campbell,H., Mayo, J and Boyd M. J. Natl. Cancer Inst.,1991,83, 757-766) using 96-well tissue culture plates. The 100 µl of cell suspension was added to each well of the 96-well tissue culture plate. The cells were incubated for 24 hours. Test materials in complete growth medium (100µl) were added after 24 hours incubation to the wells containing cell suspension. The plates were further incubated for 48 hours (at 37°C in an atmosphere of 5% and 90% relative humidity in a carbon dioxide incubator) after addition of test material and then the cell growth was stopped by gently layering trichloroacetic acid (TCA, 50µl, 50%) on top of the medium in all the wells. The plates were incubated at 4°C for one hour to fix the cells attached to the bottom of the wells. The liquid of all the wells was gently pipetted out and discarded. The plates were washed five times with distilled water to remove TCA, growth medium low molecular weight metabolites, serum proteins etc and air-dried. Cell growth was measured by staining with sulforhodamine B dye (Skehan et al., 1990). The adsorbed dye was dissolved in Tris-Buffer ([…], 0.01M, pH 10.4) and plates were gently stirred for 5 minutes on a mechanical stirrer. The optical density was recorded on ELISA reader at 540 nm.
(§4) The cell growth was calculated by subtracting mean OD value of respective blank from the mean OD value of experimental set. Percent growth in presence of test material was calculated considering the growth in absence of any test material as 100% and in turn percent growth inhibition in presence of test material will be calculated.

HOP-62 = test: as above; format: cell-based; details: HOP-62 (lung), 48 hours, read-out: percentage growth inhibition; for inhibition at 10 µM: 10^-5 mol/L; for inhibition at 1 µM: 10^-6 mol/L
Experimental: as §1, §2, §3, §4

A-549 = test: as above; format: cell-based; details: A549, A-549 (lung), 48 hours, read-out: percentage growth inhibition; for inhibition at 100 µM: 10^-4 mol/L
Experimental: as §1, §2, §3, §4

SiHa = test: as above; format: cell-based; details: SiHa (cervix), 48 hours, read-out: percentage growth inhibition; for inhibition at 10 µM: 10^-5 mol/L; for inhibition at 1 µM: 10^-6 mol/L; for inhibition at 100 µM: 10^-4 mol/L
Experimental: as §1, §2, §3, §4

HCT-15 = test: as above; format: cell-based; details: HCT-15 (colon), 48 hours, read-out: percentage growth inhibition; for inhibition at 10 µM: 10^-5 mol/L; for inhibition at 1 µM: 10^-6 mol/L
Experimental: as §1, §2, §3, §4

Row | Compound | Induced […]Tm °C after incubation at 37 °C (CT-DNA; 0 h incubation at 37 °C) [°C] | Induced […]Tm °C after incubation at 37 °C (CT-DNA; 18 h incubation at 37 °C) [°C] | inhibition at 100 µM (HT-29) [%] | inhibition at 10 µM (HT-29) [%] | inhibition at 1 µM (HT-29) [%] | inhibition at 10 µM (HOP-62) [%] | inhibition at 1 µM (HOP-62) [%] | inhibition at 100 µM (A-549) [%] | inhibition at 10 µM (SiHa) [%] | inhibition at 1 µM (SiHa) [%] | inhibition at 10 µM (HCT-15) [%] | inhibition at 1 µM (HCT-15) [%] | inhibition at 100 µM (SiHa) [%] | inhibition at 100 µM (HOP-62; 10^-4 mol/L) [%] | inhibition at 10 µM (A-549; 10^-5 mol/L) [%] | inhibition at 1 µM (A-549; 10^-6 mol/L) [%]
1 | COc1cc2c(cc1O)N=CC1CCCN1C2=O (centres unmarked) [DC-81, reference compound] | 0.3 | 0.7 | – | – | – | – | – | – | – | – | – | – | – | – | – | –
2 | COc1cc2c(cc1OCCN1CCN(CCN3C(=O)c4cccc5cccc(c45)C3=O)CC1)N=C[C@@H]1CCCN1C2=O [VIIIa, 7-Methoxy-8-{2-[4-[2-(1,3-dioxo-benz[de]isoquinolin-2-yl)ethyl]piperazin-1=yl]ethyl}-oxy-(11aS)-1,2,3,11a tetrahydro-5H-pyrrolo [2,1-c][1,4]benzodiazepin-5-one] | 21.9 | 22.7 | – | – | – | – | – | – | – | – | – | – | – | – | – | –
3 | COc1cc2c(cc1OCCCN1CCN(CCN3C(=O)c4cccc5cccc(c45)C3=O)CC1)N=C[C@@H]1CCCN1C2=O [VIIIb, 7-Methoxy-8-{3-[4-[2-(1,3-dioxo-benz[de]isoquinolin-2-yl)ethyl]piperazin-1-yl]propyl}-oxy-(11aS)-1,2,3,11a tetrahydro-5H-pyrrolo [2,1-c][1,4]benzodiazepin-5-one] | 25.8 | 26.7 | 88 | 85 | 91 | 86 | 72 | 88 | 44 | 54 | 59 | 58 | – | – | – | –
4 | COc1cc2c(cc1OCCCCN1CCN(CCN3C(=O)c4cccc5cccc(c45)C3=O)CC1)N=C[C@@H]1CCCN1C2=O [VIIIc, 7-Methoxy-8-{4-[4-[2-(1,3-dioxo-benz[de]isoquinolin-2-yl)ethyl]piperazin-1-yl]butyl}-oxy-(11aS)-1,2,3,11a tetrahydro-5H-pyrrolo [2,1-c][1,4]benzodiazepin-5-one] | 23.4 | 24.2 | 94 | 86 | 80 | 93 | 86 | 95 | 39 | – | 69 | 60 | 56 | – | – | –
5 | COc1cc2c(cc1OCCCN1CCN(CCCN3C(=O)c4cccc5cccc(c45)C3=O)CC1)N=C[C@@H]1CCCN1C2=O [VIIId, 7-Methoxy-8-{3-[4-[3-(1,3-dioxo-benz[de]isoquinolin-2-yl)propyl]piperazin-1-yl]propyl}-oxy-(11aS)-1,2,3,11a tetrahydro-5H-pyrrolo [2,1-c][1,4]benzodiazepin-5-one] | 13.1 | 14.3 | 95 | 62 | 63 | – | – | 95 | 65 | 31 | – | – | 85 | 78 | 30 | 51
6 | COc1cc2c(cc1OCCCCN1CCN(CCCCN3C(=O)c4cccc5cccc(c45)C3=O)CC1)N=C[C@@H]1CCCN1C2=O [VIIIe, 7-Methoxy-8-{4-[4-[4-(1,3-dioxo-benz[de]isoquinolin-2-yl)butyl]piperazin-1-yl]butyl}-oxy-(11aS)-1,2,3,11a tetrahydro-5H-pyrrolo [2,1-c][1,4]benzodiazepin-5-one] | 20.9 | 21.7 | 92 | 78 | 67 | 93 | 80 | 93 | 40 | 44 | 62 | 59 | 42 | – | – | –
